US6620828B2, “Thiazole compounds and pharmaceutical compositions for inhibiting protein kinases and methods for their use” (Agouron Pharmaceuticals, Inc., priority 1999, dated 2003)
Counter-ions that a name gives are not always drawn.

Target: T1, phosphorylated VEGF-R2Δ50 (FLVK-P) (Homo sapiens, UniProt P35968, DEL940-989/E990V)
T1 construct: VEGF-R2Δ50 contains residues 806-939 and 990-1171; made in house; host or cells: baculovirus/insect cells
Assay: VEGF-R2 coupled spectrophotometric (FLVK-P) assay
Assay type: biochemical
Conditions: Table 1; at 50, concentration unit not printed (head nM)
From the text: VEGF-R2 Construct for Assay: This construct determines the ability of a test compound to inhibit tyrosine kinase activity. A construct (VEGF-R2Δ50) of the cytosolic domain of human vascular endothelial growth factor receptor 2 (VEGF-R2) lacking the 50 central residues of the 68 residues of the kinase insert domain was expressed in a baculovirus/insect cell system. Of the 1356 residues of full-length VEGF-R2, VEGF-R2Δ50 contains residues 806-939 and 990-1171, and also one point mutation (E990V) within the kinase insert domain relative to wild-type VEGF-R2. Autophosphorylation of the purified construct was performed by incubation of the enzyme at a concentration of 4 μM in the presence of 3 mM ATP and 40 mM MgCl2 in 100 mM Hepes, pH 7.5, containing 5% glycerol and 5 mM DTT, at 4° C. for 2 h. […] See Parast et al., Biochemistry, 37, 16788-16801 (1998).
Coupled Spectrophotometric (FLVK-P) Assay
The production of ADP from ATP that accompanies phosphoryl transfer was coupled to oxidation of NADH using phosphoenolpyruvate (PEP) and a system having pyruvate kinase (PK) and lactic dehydrogenase (LDH). The oxidation of NADH was monitored by following the decrease of absorbance at 340 nm (e340=6.22 cm^−1 mM^−1) using a Beckman DU 650 spectrophotometer. Assay conditions for phosphorylated VEGF-R2Δ50 (indicated as FLVK-P in the tables below) were the following: 1 mM PEP; 250 μM NADH; 50 units of LDH/mL; 20 units of PK/mL; 5 mM DTT; 5.1 mM poly(E4Y1); 1 mM ATP; and 25 mM MgCl2 in 200 mM Hepes, pH 7.5. Assay conditions for unphosphorylated VEGF-R2Δ50 (indicated as FLVK in the tables) were the following: 1 mM PEP; 250 μM NADH; 50 units of LDH/mL; 20 units of PK/mL; 5 mM DTT; 20 mM poly(E4Y1); 3 mM ATP; and 60 mM MgCl2 and 2 mM MnCl2 in 200 mM Hepes, pH 7.5. Assays were initiated with 5 to 40 nM of enzyme. Ki values were determined by measuring enzyme activity in the presence of varying concentrations of test compounds. The data were analyzed using Enzyme Kinetic and Kaleidagraph software.

T1 sequence (P35968 with tags, fused parts or gaps DEL940-989/E990V limits assumed): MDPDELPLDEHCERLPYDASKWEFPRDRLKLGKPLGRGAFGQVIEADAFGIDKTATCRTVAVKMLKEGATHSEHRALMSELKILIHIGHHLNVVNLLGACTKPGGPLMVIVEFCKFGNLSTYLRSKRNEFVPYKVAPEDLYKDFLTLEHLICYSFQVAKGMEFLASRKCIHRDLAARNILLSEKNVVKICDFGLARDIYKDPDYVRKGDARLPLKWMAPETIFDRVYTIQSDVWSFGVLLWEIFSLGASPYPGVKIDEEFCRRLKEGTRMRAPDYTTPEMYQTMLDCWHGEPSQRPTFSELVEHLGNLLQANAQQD

| FLVK-P % inhibition @ 50 | Compound |
| --- | --- |
| 27% @ | Nc1nc(Nc2cccnc2)sc1-c1nc(-c2cccc(NC(=O)c3cccc(Cl)c3)c2)no1 [D(52), 3-[3-(3-Chlorobenzamido)phenyl]-5-[2-(3-aminopyridyl)-4-amino-5-thiazolyl]-1,2,4-oxadiazole] |
| 33% @ | CC(=O)Nc1nc(N)c(-c2nc(-c3cccc(NC(=O)c4cccc(Cl)c4)c3)no2)s1 [F(4), N-{3-[5-(2-Acetylamino-4-amino-thiazol-5-yl)-[1,2,4]oxadiazol-3-yl]-phenyl}-3-chloro-benzamide] |

Same assay, conditions: Table 1; spectrophotometric assay

| Compound | Ki |
| --- | --- |
| COc1cc(Nc2nc(N)c(-c3nc(-c4cccc(NC(C)=O)c4)cs3)s2)cc(OC)c1OC [D(1), N-{3-[4′-Amino-2′-(3,4,5-trimethoxy-phenylamino)-[2,5′]bithiazolyl-4-yl]-phenyl}acetamide] | 46 nM |
| COc1cc(Nc2nc(N)c(-c3nc(-c4cccc(NC(=O)c5ccnc(Cl)c5)c4)cs3)s2)cc(OC)c1OC [D(55), N-{3-[4′-Amino-2′-(3,4,5-trimethoxy-phenylamino)-[2,5′]bithiazolyl-4 yl]-phenyl}-2-chloro-isonicotinamide] | 6.3 nM |
| COc1cc(Nc2nc(N)c(-c3nc(-c4cccc(NC(=O)c5cccc(Cl)n5)c4)cs3)s2)cc(OC)c1OC [D(54), 6-Chloro-pyridine-2-carboxylic acid {3-[4′-amino-2′-(3,4,5-trimethoxy-phenylamino)-[2,5′]bithiazolyl-4-yl]-phenyl}-amide] | 6.3 nM |
| COc1cc(Nc2nc(N)c(-c3nc(-c4cccc(NC(=O)c5ccc(C)c(C)c5)c4)cs3)s2)cc(OC)c1OC [D(31), N-{3-[4′-Amino-2′-(3,4,5-trimethoxy-phenylamino)-[2,5′]bithiazolyl-4-yl]-phenyl}-3,4-dimethyl-benzamide] | 4.8 nM |
| COc1cc(Nc2nc(N)c(-c3nc(-c4cccc(NC(=O)CCc5ccccc5)c4)cs3)s2)cc(OC)c1OC [D(16), N-{3-[4′-Amino-2′-(3,4,5-trimethoxy-phenylamino)-[2,5′]bithiazolyl-4-yl]-phenyl}-3-phenyl-propionamide] | 11.8 nM |
| COc1cc(Nc2nc(N)c(-c3nc(-c4cccc(NC(=O)c5ccc(F)cc5)c4)cs3)s2)cc(OC)c1OC [D(28), N-{3-[4′-Amino-2′-(3,4,5-trimethoxy-phenylamino)-[2,5′]bithiazolyl-4-yl]-phenyl}-4-fluoro-benzamide] | 6 nM |

The next lines start with the values.

| Ki | Compound |
| --- | --- |
| 1.9 nM | CNC(=O)Nc1nc(N)c(-c2nc(-c3cccc(NC(=O)c4cccc(C)c4)c3)no2)s1 [F(8), N-(3-[5-[4-Amino-2-(3-methyl-ureido)-thiazol-5-yl]-[1,2,4]oxadiazol-3-yl}-phenyl)-3-methyl-benzamide] |
| 80 nM | COC(=O)Nc1nc(N)c(-c2nc(-c3cccc(NC(=O)c4ccc(Cl)s4)c3)cs2)s1 [F(3), (4′-Amino-4-{3-[(5-chloro-thiophene-2-carbonyl)-amino]-phenyl}-[2,5′]bithiazolyl-2′-yl)-carbamic acid methyl ester] |
| 114 nM | Nc1nc(NC(=O)c2ccccc2)sc1-c1nc(-c2cccc(NC(=O)c3cccc(Cl)c3)c2)no1 [F(7), N-{3-[5-(4-amino-2-benzoylamino-thiazol-5-yl)-[1,2,4]oxadiazol-3-yl]-phenyl}-3-chloro-benzamide] |
| 0.81 nM | COc1cc(Nc2nc(N)c(-c3nc(-c4cccc(NC(=O)c5cc(C)cc(C)c5)c4)no3)s2)cc(OC)c1OC [D(56), N-(3-{5-[4-Amino-2-(3,4,5-trimethoxy-phenylamino)-thiazol-5-yl]-[1,2,4]oxadiazol-3-yl}-phenyl)-3,5-dimethyl-benzamide trifluoroacetate salt] |
| 18 nM | COc1cc(Nc2nc(N)c(-c3nc(-c4cccc(NC(=O)c5ccccc5C)c4)no3)s2)cc(OC)c1OC [D(57), N-(3-{5-[4-Amino-2-(3,4,5-trimethoxy-phenylamino)-thiazol-5-yl]-[1,2,4]oxadiazol-3-yl}-phenyl)-2-methyl-benzamide trifluoroacetate salt] |

Same assay, conditions: Table 2; spectrophotometric assay

| Ki | Compound |
| --- | --- |
| > 100000 nM | COc1cc(Nc2nc(N)c(C3=N[C@@H](Cc4ccccc4)CO3)s2)cc(OC)c1OC [I(1), S-5-(4-Benzyl-4,5-dihydro-oxazol-2-yl)-N^2-(3,4,5-trimethoxyl-pheny)-thiazole-2,4-diamine] |
| 83 nM | COc1cc(Nc2nc(N)c(C3=NC(c4cccc(O)c4)CO3)s2)cc(OC)c1OC (stereo not drawn) [I(9), S-3-{2-[4-Amino-2-(3,4,5-trimethoxy-phenylamino)-thiazol-5-yl]-4,5-dihydro-oxazol-4-yl}-phenol] |

Same assay, conditions: Table 3; at 1 μM

| inhibition at 1 µM | Compound |
| --- | --- |
| 9% | N#Cc1cccc(Nc2nc(N)c(-c3nc(-c4cccc(NC(=O)c5cccc(Cl)c5)c4)no3)s2)c1 [D(78)] |

System: human umbilical vein endothelial cells (HUVEC)
Assay: HUVEC proliferation assay
Assay type: cell-based
Conditions: Homo sapiens, HUVEC, Table 1
Outline: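 Readout was MTT dye reduction (A595) after 72 h of stimulation with VEGF at 6 ng/ml final. Compound, in 0.1% DMSO final, was added 1 h before VEGF to HUVEC starved 24 h in 1% FBS. % inhibition was scaled between VEGF-alone and unstimulated wells; IC50 was fitted from triplicate dose curves.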

| Compound | IC50 |
| --- | --- |
| CNC(=O)Nc1nc(N)c(-c2nc(-c3cccc(NC(=O)c4cccc(C)c4)c3)no2)s1 [F(8), N-(3-[5-[4-Amino-2-(3-methyl-ureido)-thiazol-5-yl]-[1,2,4]oxadiazol-3-yl}-phenyl)-3-methyl-benzamide] | 0.022 µM |

Same assay, conditions: Homo sapiens, HUVEC, Table 2

| Compound | IC50 |
| --- | --- |
| COc1cc(Nc2nc(N)c(C3=N[C@@H](Cc4ccccc4)CO3)s2)cc(OC)c1OC [I(1), S-5-(4-Benzyl-4,5-dihydro-oxazol-2-yl)-N^2-(3,4,5-trimethoxyl-pheny)-thiazole-2,4-diamine] | 61 µM |
